Source: patent publication US8946430B2, “Quinolinone carboxamide inhibitors of endothelial lipase” (Bristol-Myers Squibb Company, priority 2011, dated 2015)

Target: T1, endothelial lipase (EL) (Homo sapiens, UniProt Q9Y5X9)
T1 construct: transformed by RAGE technology (Athersys) to overexpress endogenous EL; endogenous in cells; conditioned medium used as the enzyme source
T1 sequence (Q9Y5X9 21-500): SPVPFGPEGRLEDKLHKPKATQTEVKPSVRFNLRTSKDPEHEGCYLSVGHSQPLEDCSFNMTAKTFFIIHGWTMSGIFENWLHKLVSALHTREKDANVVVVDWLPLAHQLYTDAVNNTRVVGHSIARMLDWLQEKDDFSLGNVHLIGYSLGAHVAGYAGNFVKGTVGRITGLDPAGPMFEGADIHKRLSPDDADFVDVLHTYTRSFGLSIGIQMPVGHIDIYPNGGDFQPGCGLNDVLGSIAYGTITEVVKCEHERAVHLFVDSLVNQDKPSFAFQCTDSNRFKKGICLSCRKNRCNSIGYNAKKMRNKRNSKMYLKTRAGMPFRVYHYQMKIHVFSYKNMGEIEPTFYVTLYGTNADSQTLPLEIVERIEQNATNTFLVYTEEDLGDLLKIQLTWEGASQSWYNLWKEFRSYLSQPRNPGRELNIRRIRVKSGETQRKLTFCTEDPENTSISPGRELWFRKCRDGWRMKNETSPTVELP
Assay: Endothelial lipase (EL) enzymatic assay with fluorescent substrate A10070 in DMPG vesicles
Format: biochemical
Conditions: conditioned media from HT-1080 cells overexpressing endogenous EL; 20 min preincubation at 37° C.; FRET substrate A10070; read-out: HLE_EL_CRC IC50
Protocol: Endothelial lipase activity was measured using a fluorescent substrate, A10070, (Invitrogen, CA) doped into an artificial vesicle containing DMPG (Avanti Polar Lipids) as the excipient. Vesicles were prepared by combining 285 uL of 1 mM DMPG in a 1:1 mixture of MeOH and CHCl3 with 15 uL of 1 mM A10070 in a 1:1 mixture of MeOH and CHCl3. The mixture was dried under nitrogen and resuspended in 150 uL of 50 mM HEPES pH 8.0 buffer containing 100 mM NaCl and 0.2 mM EDTA. The sample was allowed to sit at rt for 15 min and then was sonicated 3×4 mins on ice with a Branson Sonicator using duty cycle 1. This preparation provides vesicles with a mole fraction of 0.05 for the FRET substrate.
The enzymatic assay was measured using white, opaque 96-well half area plates. Each well contained 60 uL of assay buffer (50 mM HEPES pH 8.0, 50 mM NaCl and 1 mM CaCl2) and 2 ul of a DMSO solution containing compound of interest. Conditioned media obtained from HT-1080 cells, which were transformed by RAGE technology (Athersys) to overexpress endogenous EL, was added and the reaction was allowed to incubate for 20 min at 37° C. with gentle agitation. The reaction was started by the addition of 20 uL of a 1:4 dilution of vesicles. The final total reaction volume was 100 uL. The reaction rates were measured on a Gemini plate reader with an excitation wavelength of 488 nm and a emission of 530 nm. Readings were taken every 20 seconds for 10 min with agitation between each reading. The slope of the linear portion of the readout was used to calculate the rate of the reaction.

Compound | IC50 [nM]
Cn1c(=O)c(O)c(C(=O)NCCCc2ccc(Cl)c(Cl)c2)c2ccccc21 [Example 1, N-(3-(3,4-dichlorophenyl)propyl)-3-hydroxy-1-methyl-2-oxo-1,2-dihydroquinoline-4-carboxamide] | 10
Cn1c(=O)c(O)c(C(=O)NCCCc2ccccc2Cl)c2ccccc21 [Example 27, N-(3-(2-chlorophenyl)propyl)-3-hydroxy-1-methyl-2-oxo-1,2-dihydroquinoline-4-carboxamide] | 35
O=C(NCCCc1ccc(Cl)cc1Cl)c1c(O)c(=O)[nH]c2ccc(OC(F)(F)F)cc12 [Example 28, N-(3-(2,4-dichlorophenyl)propyl)-3-hydroxy-2-oxo-6-(trifluoromethoxy)-1,2-dihydroquinoline-4-carboxamide] | 35
O=C(NCc1cccc(-c2ccc(Cl)cc2)c1)c1c(O)c(=O)[nH]c2ccc(OC(F)(F)F)cc12 [Example 42, N-((4′-chlorobiphenyl-3-yl)methyl)-3-hydroxy-2-oxo-6-(trifluoromethoxy)-1,2-dihydroquinoline-4-carboxamide] | 96
O=C(NCCCc1c(Cl)cccc1Cl)c1c(O)c(=O)[nH]c2ccc(OC(F)(F)F)cc12 [Example 43, N-(3-(2,6-dichlorophenyl)propyl)-3-hydroxy-2-oxo-6-(trifluoromethoxy)-1,2-dihydroquinoline-4-carboxamide] | 70
O=C(NCCCOc1ccccc1C(F)(F)F)c1c(O)c(=O)[nH]c2ccc(OC(F)(F)F)cc12 [Example 50, 3-hydroxy-2-oxo-6-(trifluoromethoxy)-N-(3-(2-(trifluoromethyl)phenoxy)propyl)-1,2-dihydroquinoline-4-carboxamide] | 12
C[C@@H](NC(=O)c1c(O)c(=O)n(C)c2ccccc12)c1cccc(-c2ccccc2)c1 [Example 64, (R)-N-(1-(biphenyl-3-yl)ethyl)-3-hydroxy-1-methyl-2-oxo-1,2-dihydroquinoline-4-carboxamide] | 64
Cn1c(=O)c(O)c(C(=O)NCc2ccc(OC(F)(F)F)cc2)c2ccccc21 [Example 85, 3-hydroxy-1-methyl-2-oxo-N-(4-(trifluoromethoxy)benzyl)-1,2-dihydroquinoline-4-carboxamide] | 43
Cn1c(=O)c(O)c(C(=O)NCc2cccc(OC(F)(F)F)c2)c2ccccc21 [Example 86, 3-hydroxy-1-methyl-2-oxo-N-(3-(trifluoromethoxy)benzyl)-1,2-dihydroquinoline-4-carboxamide] | 37
Cn1c(=O)c(O)c(C(=O)NCCc2ccc(C(F)(F)F)cc2)c2ccccc21 [Example 92, 3-hydroxy-1-methyl-2-oxo-N-(4-(trifluoromethyl)phenethyl)-1,2-dihydroquinoline-4-carboxamide] | 84
COC[C@H](Cc1ccccc1)NC(=O)c1c(O)c(=O)n(C)c2ccccc12 [Example 96, (S)-3-hydroxy-N-(1-methoxy-3-phenylpropan-2-yl)-1-methyl-2-oxo-1,2-dihydroquinoline-4-carboxamide] | 8530
Cn1c(=O)c(O)c(C(=O)NCCCOc2ccc(-c3ccccc3)cc2)c2ccccc21 [Example 133, N-(3-(biphenyl-4-yloxy)propyl)-3-hydroxy-1-methyl-2-oxo-1,2-dihydroquinoline-4-carboxamide] | 10
COc1ccccc1OCCCNC(=O)c1c(O)c(=O)n(C)c2ccccc12 [Example 147, 3-hydroxy-N-(3-(2-methoxyphenoxy)propyl)-1-methyl-2-oxo-1,2-dihydroquinoline-4-carboxamide] | 49
Cn1c(=O)c(O)c(C(=O)NCCc2ccc(-c3ccc(F)cc3)cc2)c2ccccc21 [Example 151, N-(2-(4′-fluorobiphenyl-4-yl)ethyl)-3-hydroxy-1-methyl-2-oxo-1,2-dihydroquinoline-4-carboxamide] | 75
Cn1c(=O)c(O)c(C(=O)NCc2cccc(-n3cccc3)c2)c2ccccc21 [Example 172, N-(3-(1H-pyrrol-1-yl)benzyl)-3-hydroxy-1-methyl-2-oxo-1,2-dihydroquinoline-4-carboxamide] | 10

Results, then the molecule that gave them:

IC50 [nM] | Compound
13 | Cn1c(=O)c(O)c(C(=O)NCCCc2ccc(Cl)cc2Cl)c2ccccc21 [Example 2, N-(3-(2,4-Dichlorophenyl)propyl)-3-hydroxy-1-methyl-2-oxo-1,2-dihydroquinoline-4-carboxamide]
10 | Cn1c(=O)c(O)c(C(=O)NCCCc2ccc(Cl)c(Cl)c2)c2cc(Cl)ccc21 [Example 3, 6-Chloro-N-(3-(3,4-dichlorophenyl)propyl)-3-hydroxy-1-methyl-2-oxo-1,2-dihydroquinoline-4-carboxamide]
11 | O=C(NCCCc1ccc(Cl)c(Cl)c1)c1c(O)c(=O)[nH]c2ccccc12 [Example 5, N-(3-(3,4-dichlorophenyl)propyl)-3-hydroxy-2-oxo-1,2-dihydroquinoline-4-carboxamide]
91 | Cn1c(=O)c(O)c(C(=O)NCCOc2ccc(Cl)cc2)c2ccccc21 [Example 26, N-(2-(4-chlorophenoxy)ethyl)-3-hydroxy-1-methyl-2-oxo-1,2-dihydroquinoline-4-carboxamide]
40 | O=C(NCCCOc1c(Cl)cccc1Cl)c1c(O)c(=O)[nH]c2ccc(OC(F)(F)F)cc12 [Example 51, N-(3-(2,6-dichlorophenoxy)propyl)-3-hydroxy-2-oxo-6-(trifluoromethoxy)-1,2-dihydroquinoline-4-carboxamide]
25 | O=C(NCC1CN(S(=O)(=O)c2ccc(Cl)c(Cl)c2)C1)c1c(O)c(=O)[nH]c2ccc(OC(F)(F)F)cc12 [Example 55, N-((1-(3,4-dichlorophenylsulfonyl)azetidin-3-yl)methyl)-3-hydroxy-2-oxo-6-(trifluoromethoxy)-1,2-dihydroquinoline-4-carboxamide]
83 | Cn1c(=O)c(O)c(C(=O)NCc2csc(-c3ccccc3)n2)c2ccccc21 [Example 90, 3-hydroxy-1-methyl-2-oxo-N-((2-phenylthiazol-4-yl)methyl)-1,2-dihydroquinoline-4-carboxamide]
9360 | Cn1c(=O)c(O)c(C(=O)NCCCN2CCCC2=O)c2ccccc21 [Example 103, 3-hydroxy-1-methyl-2-oxo-N-(3-(2-oxopyrrolidin-1-yl)propyl)-1,2-dihydroquinoline-4-carboxamide]
100 | Cn1c(=O)c(O)c(C(=O)NCc2ccc(C(F)(F)F)cc2)c2ccccc21 [Example 105, 3-hydroxy-1-methyl-2-oxo-N-(4-(trifluoromethyl)benzyl)-1,2-dihydroquinoline-4-carboxamide]
11100 | Cn1c(=O)c(O)c(C(=O)NCc2nc3ccccc3s2)c2ccccc21 [Example 107, N-(benzo[d]thiazol-2-ylmethyl)-3-hydroxy-1-methyl-2-oxo-1,2-dihydroquinoline-4-carboxamide]
2910 | Cn1c(=O)c(O)c(C(=O)NCc2ccccc2N2CCCC2)c2ccccc21 [Example 109, 3-hydroxy-1-methyl-2-oxo-N-(2-(pyrrolidin-1-yl)benzyl)-1,2-dihydroquinoline-4-carboxamide]
1700 | Cn1c(=O)c(O)c(C(=O)NCc2ccccc2N2CCC(CO)CC2)c2ccccc21 [Example 141, 3-hydroxy-N-(2-(4-(hydroxymethyl)piperidin-1-yl)benzyl)-1-methyl-2-oxo-1,2-dihydroquinoline-4-carboxamide]
3120 | Cn1c(=O)c(O)c(C(=O)NC(Cc2ccccc2)c2ccccc2)c2ccccc21 (stereo not shown) [Example 155, N-(1,2-diphenylethyl)-3-hydroxy-1-methyl-2-oxo-1,2-dihydroquinoline-4-carboxamide]
